Source: BindingDB's records for doi:10.1021/jm981008a (1998)

Experiments:
[1] = molecular target: Sodium-dependent serotonin transporter (Homo sapiens, UniProt P31645); assay: The compound was tested in vitro for binding affinity for the serotonin transporter (5-HTT) using competitive binding assay.
[2] = molecular target: T1, Sodium-dependent dopamine transporter (Homo sapiens, UniProt Q01959); assay: The compound was tested in vitro for high binding affinity for the Dopamine transporter (DAT) using competitive binding assay.
[3] = molecular target: T1, Sodium-dependent dopamine transporter; assay: The compound was tested in vitro for low binding affinity for the Dopamine transporter (DAT) using competitive binding assay.
[4] = molecular target: Sodium-dependent noradrenaline transporter (Homo sapiens, UniProt P23975); assay: The compound was tested in vitro for binding affinity for the norepinephrine transporter (NET) using competitive binding assay.
Chain of Sodium-dependent noradrenaline transporter (P23975 whole entry): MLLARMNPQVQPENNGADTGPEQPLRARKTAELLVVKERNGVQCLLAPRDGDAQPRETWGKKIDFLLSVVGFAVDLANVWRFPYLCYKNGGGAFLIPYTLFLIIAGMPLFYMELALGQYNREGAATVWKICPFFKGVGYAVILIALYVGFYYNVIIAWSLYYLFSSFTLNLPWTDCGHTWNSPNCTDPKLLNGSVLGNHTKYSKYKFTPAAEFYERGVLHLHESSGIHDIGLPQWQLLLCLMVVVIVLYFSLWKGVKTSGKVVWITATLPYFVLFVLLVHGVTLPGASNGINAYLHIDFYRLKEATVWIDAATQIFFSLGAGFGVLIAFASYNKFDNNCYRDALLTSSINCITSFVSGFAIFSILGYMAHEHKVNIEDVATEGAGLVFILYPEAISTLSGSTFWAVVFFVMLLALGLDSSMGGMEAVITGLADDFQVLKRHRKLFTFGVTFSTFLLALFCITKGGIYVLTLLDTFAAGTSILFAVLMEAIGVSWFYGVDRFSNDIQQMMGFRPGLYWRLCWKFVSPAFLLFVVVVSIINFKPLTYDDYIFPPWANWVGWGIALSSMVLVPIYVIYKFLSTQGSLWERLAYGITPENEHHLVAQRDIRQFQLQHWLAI

T1 sequence (Q01959 whole entry): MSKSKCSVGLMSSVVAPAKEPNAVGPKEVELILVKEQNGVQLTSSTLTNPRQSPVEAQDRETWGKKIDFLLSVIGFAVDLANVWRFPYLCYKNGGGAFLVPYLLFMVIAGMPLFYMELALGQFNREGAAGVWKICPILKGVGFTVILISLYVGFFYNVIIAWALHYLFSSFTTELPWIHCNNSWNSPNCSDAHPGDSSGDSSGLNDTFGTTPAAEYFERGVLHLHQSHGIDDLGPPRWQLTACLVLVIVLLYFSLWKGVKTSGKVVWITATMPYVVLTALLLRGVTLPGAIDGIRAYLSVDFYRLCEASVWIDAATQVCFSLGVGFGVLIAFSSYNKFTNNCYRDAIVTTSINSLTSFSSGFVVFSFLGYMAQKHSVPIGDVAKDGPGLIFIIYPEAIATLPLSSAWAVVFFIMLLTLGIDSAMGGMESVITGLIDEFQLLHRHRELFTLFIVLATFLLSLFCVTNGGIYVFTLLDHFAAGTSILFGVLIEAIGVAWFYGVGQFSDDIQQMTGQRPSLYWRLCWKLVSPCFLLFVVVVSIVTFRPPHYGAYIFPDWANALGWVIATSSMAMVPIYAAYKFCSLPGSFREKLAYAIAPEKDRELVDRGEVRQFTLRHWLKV
Chain of Sodium-dependent serotonin transporter (P31645 whole entry): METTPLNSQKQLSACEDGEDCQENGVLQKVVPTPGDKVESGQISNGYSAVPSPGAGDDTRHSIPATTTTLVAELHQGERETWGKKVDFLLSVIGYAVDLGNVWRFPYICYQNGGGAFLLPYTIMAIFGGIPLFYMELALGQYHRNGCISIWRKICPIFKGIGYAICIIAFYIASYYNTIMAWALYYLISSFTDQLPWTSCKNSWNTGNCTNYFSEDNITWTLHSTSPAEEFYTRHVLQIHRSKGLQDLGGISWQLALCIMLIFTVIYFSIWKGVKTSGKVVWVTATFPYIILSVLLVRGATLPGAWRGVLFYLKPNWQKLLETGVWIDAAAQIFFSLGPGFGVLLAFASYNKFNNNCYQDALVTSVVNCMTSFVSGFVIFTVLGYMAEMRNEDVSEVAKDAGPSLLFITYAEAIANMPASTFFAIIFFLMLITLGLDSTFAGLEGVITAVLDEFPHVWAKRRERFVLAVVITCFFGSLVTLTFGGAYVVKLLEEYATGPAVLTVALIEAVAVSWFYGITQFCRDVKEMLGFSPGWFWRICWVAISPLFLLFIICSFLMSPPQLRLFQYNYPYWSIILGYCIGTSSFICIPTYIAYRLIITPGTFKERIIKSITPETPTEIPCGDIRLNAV

Work on CN1C2CCC1[C@@H](COC(=O)CC[S+]1CC[S+](C)[Re]1([Br])([CH]=O)([CH]=O)[CH]=O)[C@@H](c1ccc(F)cc1)C2 (some centres undefined) [Rhenium complex of 3-(2-Bromo-2,2,2-triformyl-3-methyl-1lambda*4*,2lambda*6*,3lambda*4*-[1,2,3]dithiolan-1-yl)-propionic acid 3-(4-fluoro-phenyl)-8-methyl-8-aza-bicyclo[3.2.1]oct-2-ylmethyl ester] yielded an IC50 [1] of 72 nM, an IC50 [2] of 0.146 nM and an IC50 [3] of 20 nM. It also gave an IC50 [4] of 7.3 nM.
